Earlier results on 1 compound are cited in PMC11642016 (International Journal of Molecular Sciences, 2024).

The data set concerns PANC-1 and A2058 cells. Also noted: method as in PMID 35455465. The conditions noted are these: 24 h exposure time; cited from earlier work.

As to `NCC#Cc1ccc(CN2C(=O)C3=C(CCN(Cc4ccc(-n5cc(-c6ccccc6)nn5)cc4)C3)N3CCN=C23)cc1` [I/B, reference compound], the apoptosis induction entry was “far more efficient in apoptosis induction than ONC201”.
